Test results as given in patent publication USRE37781E1, “Substituted cyclic carbonyls and derivatives thereof useful as retroviral protease inhibitors” (DuPont Pharmaceuticals Company, priority 1991, dated 2002).
pKi: −log10 of the molar value. In brackets after ≈: the same amount, converted by molar mass. Where two headings read alike, the source gives them in different places.

Columns and labels:
[1] = biological target: T1, HIV protease (Human immunodeficiency virus type 1 group M subtype B, UniProt P04585); assay: biochemical; parameters: species or system HIV-1
T1 construct: plasmid containing HIV protease under the control of an inducible T7 promoter; made in house; host or cells: E. coli (inclusion bodies, T7 promoter)
Method: HIV Protease Inhibition Assay—Spectroscopic Method
Inclusion bodies were solubilized in 8M urea, 50 mM tris pH 8.0. Protease activity was recovered by dilution 20-fold into buffer containing 50 mM sodium acetate pH 5.5, 1 mM EDTA, 10% glycerol and 5% ethylene glycol. Enzyme was used at a final concentration of 1.0-10 ug/ml.
Stock solutions of 10 mM were prepared in DMSO.
All further dilutions were done in DMSO.

[2] = tested on: HIV-1 (RF) in MT-2 cells; assay: microbe, parasite or virus in culture; format: cell-based
Procedure, shortened: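 Read-out: gag and pol viral RNA captured by 5′-biotinylated oligonucleotides on streptavidin-coated wells, detected with alkaline phosphatase-linked reporter oligonucleotides, calibrated against BH10 in vitro transcripts. Virus stocks (RF, MN, IIIB) come from H9 cultures; MT-2 host cells kept in RPMI 1640, 5% FCS.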

[3] = Human immunodeficiency virus 1, MT2, Table 1c, read-out: IC90
[4] = Human immunodeficiency virus 1, MT2, Table 2A, read-out: IC90
[5] = Human immunodeficiency virus 1, MT2, second table headed Table 2A, read-out: IC90
[6] = second table headed Table 2A, read-out: Ki

| SMILES | melting point [°C] | pKi ([1]; Ki) | IC90 [2, 3] [µg/mL] | other results |
| --- | --- | --- | --- | --- |
| O=C1N(CCN2CCOCC2)C(Cc2ccccc2)C(O)C(O)C(Cc2ccccc2)N1CCN1CCOCC1 (stereo not shown) [Example 1AA] | 70 to 75 |  |  | pKi ([1]; Table 1a, read-out: Ki): < 6.00 |
| CCCCCCCN1C(=O)N(CCCCCCC)C(Cc2ccccc2)C(O)C(O)C1Cc1ccccc1 (stereo not shown) [Example 1AB] | 100 to 101 |  |  | pKi ([1]; Table 1a, read-out: Ki): 6.00 to 8.00 |
| CCN1C(=O)N(CC)C(Cc2ccccc2)C(O)C(O)C1Cc1ccccc1 (stereo not shown) [Example 1AD] | 214 to 215 |  |  | pKi ([1]; Table 1a, read-out: Ki): 6.00 to 8.00 |
| C=C(C)CN1C(=O)N(CC(=C)C)C(Cc2ccccc2)C(O)C(O)C1Cc1ccccc1 (stereo not shown) [Example 1AJ] | 205 to 207 |  |  | pKi ([1]; Table 1a, read-out: Ki): > 8.00 |
| CCCCCN1C(=O)N(CCCCC)C(Cc2ccccc2)C(O)C(O)C1Cc1ccccc1 (stereo not shown) [Example 1AK] | 125 to 127 | > 8.00 |  |  |
| CC(C)CCCCCN1C(=O)N(CCCCCC(C)C)C(Cc2ccccc2)C(O)C(O)C1Cc1ccccc1 (stereo not shown) [Example 1AL] | 144 to 145 | 6.00 to 8.00 |  |  |
| CC(C)CCCN1C(=O)N(CCCC(C)C)C(Cc2ccccc2)C(O)C(O)C1Cc1ccccc1 (stereo not shown) [Example 1AM] | 120 to 122 | > 8.00 |  |  |
| CC(C)CCCCN1C(=O)N(CCCCC(C)C)C(Cc2ccccc2)C(O)C(O)C1Cc1ccccc1 (stereo not shown) [Example 1AN] | 105 to 107 | 6.00 to 8.00 |  |  |
| C#CCN1C(=O)N(CC#C)C(Cc2ccccc2)C(O)C(O)C1Cc1ccccc1 (stereo not shown) [Example 1AP] | 198 to 200 |  |  | pKi ([1]; Table 1a, read-out: Ki): 6.00 to 8.00 |
| N#CN=C1N(CC2CC2)[C@H](Cc2ccccc2)[C@H](O)[C@@H](O)[C@@H](Cc2ccccc2)N1CC1CC1 [Example 1BS] | 211.2 | 6.00 to 8.00 | < 10 |  |
| N#CN=C1N(Cc2ccc(OCc3ccccc3)cc2)C(Cc2ccccc2)C(O)C(O)C(Cc2ccccc2)N1Cc1ccc(OCc2ccccc2)cc1 (stereo not shown) [Example 1BT] | 90.1 | 6.00 to 8.00 | > 100 |  |
| N#CN=C1N(Cc2ccc(O)cc2)C(Cc2ccccc2)C(O)C(O)C(Cc2ccccc2)N1Cc1ccc(O)cc1 (stereo not shown) [Example 1BU] | 103.3 | > 8.00 | < 10 |  |
| N#CN=C1N(CC2CCCC2)C(Cc2ccccc2)C(O)C(O)C(Cc2ccccc2)N1CC1CCCC1 (stereo not shown) [Example 1BV] | 99.7 | > 8.00 | < 10 |  |
| C=CCN1C(=NC#N)N(CC=C)C(Cc2ccccc2)C(O)C(O)C1Cc1ccccc1 (stereo not shown) [Example 1BW] | 70.2 | 6.00 to 8.00 | 10 to 100 (≈ 23.2 to 232 µM) |  |
| CCCCN1C(=NC#N)N(CCCC)C(Cc2ccccc2)C(O)C(O)C1Cc1ccccc1 (stereo not shown) [Example 1BX] | 58.3 | > 8.00 | < 10 |  |
| N#CN=C1N(Cc2ccc3ccccc3c2)C(Cc2ccccc2)C(O)C(O)C(Cc2ccccc2)N1Cc1ccc2ccccc2c1 (stereo not shown) [Example 1BY] | 111.1 | 6.00 to 8.00 | > 100 |  |
| N#CN=C1N(Cc2ccccc2)C(Cc2ccccc2)C(O)C(O)C(Cc2ccccc2)N1Cc1ccccc1 (stereo not shown) [Example 1BZ] | 94 | 6.00 to 8.00 | < 10 |  |
| N#CN=C1N(Cc2cccc(OCc3ccccc3)c2)C(Cc2ccccc2)C(O)C(O)C(Cc2ccccc2)N1Cc1cccc(OCc2ccccc2)c1 (stereo not shown) [Example 1CA] | 75.2 | 6.00 to 8.00 | > 100 |  |
| N#CN=C1N(Cc2ccc([N+](=O)[O-])cc2)C(Cc2ccccc2)C(O)C(O)C(Cc2ccccc2)N1Cc1ccc([N+](=O)[O-])cc1 (stereo not shown) [Example 1CB] | 130.3 |  |  | IC90 ([2]; Human immunodeficiency virus 1, MT2): 10 to 100 µg/mL (≈ 16.1 to 161 µM); pKi ([1]; Ki, Table 1c, cyclic guanidines): 6.00 to 8.00 |
| N#CN=C1N(Cc2cccc(O)c2)C(Cc2ccccc2)C(O)C(O)C(Cc2ccccc2)N1Cc1cccc(O)c1 (stereo not shown) [Example 1CD] | 124 | > 8.00 | < 10 |  |
| N#CN=C1N(Cc2ccc(N)cc2)C(Cc2ccccc2)C(O)C(O)C(Cc2ccccc2)N1Cc1ccc(N)cc1 (stereo not shown) [Example 1CE] | 226.3 | 6.00 to 8.00 | < 10 |  |
| N#CN=C1N(Cc2cccc(N)c2)C(Cc2ccccc2)C(O)C(O)C(Cc2ccccc2)N1Cc1cccc(N)c1 (stereo not shown) [Example 1CF] | 114.4 | > 8.00 | < 10 |  |
| N#CN=C1N(Cc2cccc(C#N)c2)C(Cc2ccccc2)C(O)C(O)C(Cc2ccccc2)N1Cc1cccc(C#N)c1 (stereo not shown) [Example 1CH] | 108.5 | 6.00 to 8.00 | < 10 |  |

| SMILES | melting point [°C] | pKi ([1]; Ki) | IC90 [2, 3] [µg/mL] | other results |
| --- | --- | --- | --- | --- |
| CC(C)=CCN1C(=NC#N)N(CC=C(C)C)C(Cc2ccccc2)C(O)C(O)C1Cc1ccccc1 (stereo not shown) [Example 1CI] | 72.9 | 6.00 to 8.00 | < 10 |  |
| N#CN=C1N(CC2CCCCC2)C(Cc2ccccc2)C(O)C(O)C(Cc2ccccc2)N1CC1CCCCC1 (stereo not shown) [Example 1CJ] | 96.4 | > 8.00 | < 10 |  |
| N#CN=C1N(CC2CCC2)C(Cc2ccccc2)C(O)C(O)C(Cc2ccccc2)N1CC1CCC1 (stereo not shown) [Example 1CK] | 235.5 | > 8.00 | < 10 |  |
| CCCN1C(=NC#N)N(CCC)C(Cc2ccccc2)C(O)C(O)C1Cc1ccccc1 (stereo not shown) [Example 1CL] | 216.6 | 6.00 to 8.00 | < 10 |  |
| CC(C)CCN1C(=NC#N)N(CCC(C)C)C(Cc2ccccc2)C(O)C(O)C1Cc1ccccc1 (stereo not shown) [Example 1CM] | 76.1 | 6.00 to 8.00 | < 10 |  |
| N#CN=C1N(Cc2ccc(CO)cc2)C(Cc2ccccc2)C(O)C(O)C(Cc2ccccc2)N1Cc1ccc(CO)cc1 (stereo not shown) [Example 1CN] | 100.9 | 6.00 to 8.00 | < 10 |  |
| N#CN=C1N(Cc2cccc(CO)c2)C(Cc2ccccc2)C(O)C(O)C(Cc2ccccc2)N1Cc1cccc(CO)c1 (stereo not shown) [Example 1CO] | 193.8 | > 8.00 | < 10 |  |
| N#CN=C1N(Cc2cccc(C=NO)c2)C(Cc2ccccc2)C(O)C(O)C(Cc2ccccc2)N1Cc1cccc(C=NO)c1 (stereo not shown) [Example 1CQ] | 121.2 | > 8.00 | < 10 |  |
| CN1C(=O)N(C)C(Cc2ccccc2)C(O)C(O)C1Cc1ccccc1 (stereo not shown) [Example 1W] | 170 to 174 | < 6.00 |  |  |
| CCCCCCN1C(=O)N(CCCCCC)C(Cc2ccccc2)C(O)C(O)C1Cc1ccccc1 (stereo not shown) [Example 1Y] | 110 to 112 | > 8.00 |  |  |
| CC(C)=CCN1C(=O)N(CC=C(C)C)C(Cc2ccccc2)C(O)C(O)C1Cc1ccccc1 (stereo not shown) [Example 2A] | 165.1 |  |  | IC90 [2, 4]: < 10 µg/mL; IC90 [2, 5]: < 10 µg/mL; pKi ([1]; Table 2A, read-out: Ki): > 8.00; pKi [1, 6]: > 8.00 |
| O=C1N(CCCc2ccccc2)C(Cc2ccccc2)C(O)C(O)C(Cc2ccccc2)N1CCCc1ccccc1 (stereo not shown) [Example 2B] | 120.7 |  |  | IC90 [2, 4]: < 10 µg/mL; IC90 [2, 5]: < 10 µg/mL; pKi ([1]; Table 2A, read-out: Ki): 6.00 to 8.00; pKi [1, 6]: 6.00 to 8.00 |
| C=CCN1C(=O)N(CC=C(C)C)C(Cc2ccccc2)C(O)C(O)C1Cc1ccccc1 (stereo not shown) [Example 2C] | 62 |  |  | IC90 [2, 4]: < 10 µg/mL; IC90 [2, 5]: < 10 µg/mL; pKi ([1]; Table 2A, read-out: Ki): > 8.00; pKi [1, 6]: > 8.00 |
| C=CCN1C(=O)N(Cc2ccccc2)C(Cc2ccccc2)C(O)C(O)C1Cc1ccccc1 (stereo not shown) [Example 2G] | 226.5 |  |  | IC90 [2, 4]: < 10 µg/mL; IC90 [2, 5]: < 10 µg/mL; pKi ([1]; Table 2A, read-out: Ki): > 8.00; pKi [1, 6]: > 8.00 |
| CN1C(=O)N(Cc2ccccc2)C(Cc2ccccc2)C(O)C(O)C1Cc1ccccc1 (stereo not shown) [Example 2H] | 81 |  |  | IC90 [2, 4]: < 10 µg/mL; IC90 [2, 5]: < 10 µg/mL; pKi ([1]; Table 2A, read-out: Ki): 6.00 to 8.00; pKi [1, 6]: 6.00 to 8.00 |
| O=C1N(Cc2cccc(OC(F)(F)F)c2)C(Cc2ccccc2)C(O)C(O)C(Cc2ccccc2)N1Cc1cccc(OC(F)(F)F)c1 (stereo not shown) [Example 2J] | 128.3 |  |  | IC90 [2, 4]: < 10 µg/mL; IC90 [2, 5]: < 10 µg/mL; pKi ([1]; Table 2A, read-out: Ki): 6.00 to 8.00; pKi [1, 6]: 6.00 to 8.00 |
| O=C1N(Cc2ccc(F)c(C(F)(F)F)c2)C(Cc2ccccc2)C(O)C(O)C(Cc2ccccc2)N1Cc1ccc(F)c(C(F)(F)F)c1 (stereo not shown) [Example 2K] | 167.2 |  |  | IC90 [2, 4]: < 10 µg/mL; IC90 [2, 5]: < 10 µg/mL; pKi ([1]; Table 2A, read-out: Ki): 6.00 to 8.00; pKi [1, 6]: 6.00 to 8.00 |
| O=C1N(Cc2cc(F)cc(C(F)(F)F)c2)C(Cc2ccccc2)C(O)C(O)C(Cc2ccccc2)N1Cc1cc(F)cc(C(F)(F)F)c1 (stereo not shown) [Example 2M] | 162.3 |  |  | pKi ([1]; Table 2A, read-out: Ki): 6.00 to 8.00; pKi [1, 6]: 6.00 to 8.00 |
| O=C1N(Cc2ccccc2)C(Cc2ccccc2)C(O)C2C(Cc3ccccc3)N12 (stereo not shown) [Example 21D] |  |  |  | IC90 ([2]; Table 2j): ++/+ (The ++/+ is used in the cases where an IC90 was determined to be >50 μg/mL); pKi ([1]; Table 2j, read-out: Ki): < 6.00 |
| O=C1N(Cc2cccc(OCc3ccccc3)c2)C(Cc2ccccc2)C(O)C2C(Cc3ccccc3)N12 (stereo not shown) [Example 21E] |  |  |  | IC90 ([2]; Table 2j): ++/+ (The ++/+ is used in the cases where an IC90 was determined to be >50 μg/mL); pKi ([1]; Table 2j, read-out: Ki): < 6.00 |
| N#Cc1cccc(CN2C(=O)N3C(Cc4ccccc4)C3C(O)C2Cc2ccccc2)c1 (stereo not shown) [Example 21F] |  |  |  | IC90 ([2]; Table 2j): + (+=>100 μg/mL); pKi ([1]; Table 2j, read-out: Ki): < 6.00 |
| NC(=O)c1cccc(CN2C(=O)N3C(Cc4ccccc4)C3C(O)C2Cc2ccccc2)c1 (stereo not shown) [Example 21G] |  |  |  | IC90 ([2]; Table 2j): ++ (++=10 to 100 μg/mL); pKi ([1]; Table 2j, read-out: Ki): 6.00 to 8.00 |
| NC(=NO)c1cccc(CN2C(=O)N3C(Cc4ccccc4)C3C(O)C2Cc2ccccc2)c1 (stereo not shown) [Example 21H] |  |  |  | IC90 ([2]; Table 2j): +++ (+++=<10 μg/mL); pKi ([1]; Table 2j, read-out: Ki): 6.00 to 8.00 |
